Marks after values point to notes of the source that are not given here.
assay: Measurement of LogP values by HPLC on reversed phase columns (EEC directive 79/831 Annex V.A8); type: physicochemical; conditions: not given
Outline: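 LogP measured by reversed-phase HPLC following EEC directive 79/831 Annex V.A8. Lambda-max taken from UV spectra at 200–400 nm at chromatographic peak maxima; diastereoisomer values listed separately.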

LogP | LogP [a] | LogP [b] | Compound
6.09[a] |  |  | COc1ccc(CNc2nsc(C(=O)N(CC3C(C)CCCC3(C)C)C3CC3)c2Cl)cc1 (stereo not drawn) [I-859]
2.71[a] |  |  | Nc1nsc(C(=O)NCc2cc(Cl)ccc2Cl)c1Cl [I-416]
2.67[a] |  |  | C[C@H]1CCCC[C@H]1CNC(=O)c1snc(N)c1I (relative stereo) [I-1541]
3.76[a] |  |  | C[C@H](NC(=O)c1snc(N(S(C)(=O)=O)S(C)(=O)=O)c1Cl)C1CCCCC1 [I-103]
3.56[a] |  |  | CC(C)(C)OC(=O)Nc1nsc(C(=O)NCC2CCCCC2Cl)c1Cl (stereo not drawn) [I-1581]
 | 3.87^[a] |  | CCOC(=O)c1snc(NCc2ccc(OC)cc2)c1Cl [E-VII-069]
4.37[a] |  |  | COc1ccc(CNc2nsc(C(=O)NCc3cc(C(F)(F)F)ccc3Cl)c2Cl)cc1 [I-1246]
2.49[a] |  |  | C[C@@H]1CCCC[C@H]1NC(=O)c1snc(N)c1Br (relative stereo) [I-839]
4.44[a] |  |  | COc1ccc(CNc2nsc(C(=O)NCc3ccc(Oc4ccc(F)cc4)cc3)c2Cl)cc1 [I-222]
2.18[a] |  |  | Nc1cc(C(=O)N(Cc2cc(F)ccc2F)C2CC2)sn1 [I-997]
 | 4.89^[a] |  | O=C(NCc1ccccc1Cl)c1snc(N=C(c2ccccc2)c2ccccc2)c1Cl [II-004]
 | 1.74^[a] |  | O=C(Nc1nscc1Cl)c1ccc(F)cc1 [Z-A-002]
1.82[a] |  |  | COc1c(N)nsc1C(=O)NCc1c(F)cc(F)cc1F [I-732]
4.37[a] |  |  | COc1ccc(CNc2nsc(C(=O)NCc3csc4ccc(Cl)cc34)c2Cl)cc1 [I-1340]
2.21[a] |  |  | Nc1nsc(C(=O)N(c2ccc(F)cc2)C2CC2)c1Cl [I-917]
6.02[a] |  |  | CCC1CC(C)CC(CC)C1NC(=O)c1snc(NCc2ccc(OC)cc2)c1Cl (stereo not drawn) [I-1191]
3.07[a] |  |  | O=C(NCc1ccc(Cl)cc1)c1snc(NC2CC2)c1Cl [I-580]
2.50[a] |  |  | Nc1nsc(C(=O)NCC2CCCCC2Cl)c1I (stereo not drawn) [I-1293]
2.58[a] |  |  | COc1ccc(CNc2nsc(C(=O)NCc3cnn(CC(F)F)c3)c2Cl)cc1 [I-1315]
1.64[a] |  |  | Cc1c(N)nsc1C(=O)NCc1cccc(F)c1F [I-147]
 | 2.47^[a] |  | CCOC(=O)c1snc(N(C(C)=O)C(C)=O)c1Cl [E-VII-022]
1.66[a] |  |  | CCOc1c(N)nsc1C(=O)NCC1CCCCO1 (stereo not drawn) [I-729]
3.83[a] |  |  | COc1ccc(CNc2nsc(C(=O)NC(=O)C3CCCCC3)c2Cl)cc1 [I-982]

LogP | LogP [a] | LogP [b] | Compound
 | 5.13^[a] |  | O=C(NC1CCCCC1)c1snc(N=C(c2ccccc2)c2ccccc2)c1Cl [II-001]
0.86[a] |  |  | COc1ccc(CNC(=O)c2cc(N)ns2)cn1 [I-099]
4.74[a] |  |  | COc1ccc(CNc2nsc(C(=O)NC3CC(C)(C)Cc4oc(C)cc43)c2Cl)cc1 (stereo not drawn) [I-1325]
1.67[a] |  |  | COc1ccc(CNc2nsc(C(=O)NC3CCCc4ccncc43)c2Cl)cc1 (stereo not drawn) [I-1310]
5.03[a] |  |  | CCC1(CNC(=O)c2snc(NC(C)C)c2Cl)CCCCC1 [I-834]
1.63[a] |  |  | COc1ccc(CNc2nsc(C(=O)NC(C)c3cccnc3)c2Cl)cc1 (stereo not drawn) [I-1253]
 | 4.56^[a] |  | C[C@H](NC(=O)c1snc(Cl)c1Cl)C1CCCCC1 [E-II-002]
5.74[a] |  |  | O=C(Nc1ccc(Cl)cc1Cl)c1cc(N(Cc2ccccc2)Cc2ccccc2)ns1 [I-903]
2.59[a] |  |  | COc1ccc(CNc2nsc(C(=O)NCCC3CCOC3)c2Cl)cc1 (stereo not drawn) [I-1196]
2.69[a] |  |  | COc1ccc(CNc2nsc(C(=O)NCc3csc(C)n3)c2Cl)cc1 [I-1217]
2.66[a] |  |  | Nc1nsc(C(=O)NCC2CCCC(C(F)(F)F)C2)c1Cl (stereo not drawn) [I-139]
2.86[a] |  |  | Nc1nsc(C(=S)NCc2c(F)cc(F)cc2F)c1Cl [I-1015]
6.20[a] |  |  | C[C@H](NC(=O)c1snc(N(Cc2ccccc2)Cc2ccccc2)c1C1CC1)C1CCCCC1 [I-264]
2.73[a] |  |  | COc1ccc(CNc2nsc(C(=O)NC(c3cncnc3)C(C)C)c2Cl)cc1 (stereo not drawn) [I-1251]
2.71[a] |  |  | Nc1nsc(C(=O)NCC2CCC(C(F)(F)F)CC2)c1Cl (stereo not drawn) [I-141]
1.88[a] |  |  | COc1ccc(CNC(=O)c2snc(N)c2Cl)c(F)c1 [I-126]
3.21[a] |  |  | CCCCn1cc(CNC(=O)c2snc(NCc3ccc(OC)cc3)c2Cl)c(C)n1 [I-1260]
4.32[a] |  |  | COc1ccc(CNc2nsc(C(=O)NC(C)c3cccc4ccccc34)c2Cl)cc1 (stereo not drawn) [I-1275]
1.92[a] |  |  | CCOC(=O)C1CCC(NC(=O)c2snc(N)c2Cl)CC1 (stereo not drawn) [I-843]
3.85[a] |  |  | COc1ccc(CNc2nsc(C(=O)N(c3ccc(F)cc3)C3CC3)c2Cl)cc1 [I-922]
1.78[a] |  |  | COc1ccc(CNc2nsc(C(=O)NCc3cccc(C)n3)c2Cl)cc1 [I-1345]
3.83[a] |  |  | COc1ccc(CNc2nsc(C(=O)Nc3ccc(F)cc3F)c2Cl)cc1 [I-856]
2.33[a] |  |  | COc1ccc(CNc2nsc(C(=O)NCc3cnn(C)c3C)c2Cl)cc1 [I-1341]

LogP | LogP [a] | LogP [b] | Compound
3.39[a] |  |  | Cc1cc(C)c(CN(C(=O)c2snc(N)c2Cl)C2CC2)cc1C [I-151]
1.48[a] |  |  | COc1ccc(CNC(=O)c2cc(N)ns2)c(F)c1 [I-171]
 | 1.40^[a] |  | CS(C)=Nc1nsc(C(=O)NCc2c(F)cc(F)cc2F)c1F [II-079]
1.83[a] |  |  | Nc1nsc(C(=O)NCc2ccc(F)cc2)c1Cl [I-025]
2.50[a] |  |  | Cc1ccc(C)c(CNC(=O)c2snc(N)c2Cl)c1 [I-326]
 | 4.20^[a] |  | COc1ccc(CNc2nsc(C(=O)N3CCc4c(Cl)cccc4C3)c2Cl)cc1 [II-098]
1.81[a] |  |  | Cc1ccc(CNC(=O)c2snc(N)c2C)c(F)c1 [I-145]
5.98[a] |  |  | O=C(NC1CCCCC1)c1snc(N(Cc2ccccc2)Cc2ccccc2)c1-c1ccc(F)cc1 [I-319]
1.50[a] |  |  | Nc1cc(C(=O)NCc2c(F)cc(F)cc2F)sn1 [I-180]
3.68[a] |  |  | COc1ccc(CNc2nsc(C(=O)NC(C)c3cccc(OC)c3)c2Cl)cc1 (stereo not drawn) [I-1234]
1.22[a] |  |  | Nc1nsc(C(=O)NCc2cccnc2Cl)c1Cl [I-036]
3.11[a] |  |  | CCC(c1ccccc1)N(C(=O)c1snc(N)c1Cl)C1CC1 (stereo not drawn) [I-888]
4.15[a] |  |  | COc1ccc(CNc2nsc(C(=O)NCc3cc(F)cc(C(F)(F)F)c3)c2Cl)cc1 [I-1264]
2.53[a] |  |  | Nc1cc(C(=O)N(Cc2c(Cl)cccc2Cl)C2CC2)sn1 [I-968]
2.12[a] |  |  | N#Cc1ccc(CNC(=O)c2snc(NC(=O)C(F)(F)F)c2Cl)cc1 [I-812]
2.63[a] |  |  | Nc1nsc(C(=O)NCc2cc(Cl)cc(Cl)c2)c1Cl [I-027]
 | 4.15^[a] |  | O=C(NCc1ccccc1F)c1snc(N(S(=O)(=O)c2ccccc2)S(=O)(=O)c2ccccc2)c1Cl [II-012]
3.39[a] |  |  | Nc1nsc(C(=O)NC2CCCC3CCCCC32)c1Cl (stereo not drawn) [I-621]
5.23[a] |  |  | O=C(NC1CCCC2CCCCC21)c1snc(NCc2ccccc2)c1Cl (stereo not drawn) [I-046]
 | 4.66 | 4.55 | COc1ccc(CNc2nsc(C(=O)N3CCc4c(Cl)ccc(Cl)c4C3)c2Cl)cc1 [II-068]
2.90[a] |  |  | Nc1nsc(C(=O)NCc2ccc(F)c(Oc3ccccc3)c2)c1Cl [I-237]
2.34[a] |  |  | C[C@@H]1CCCC[C@H]1NC(=O)c1snc(N)c1Br (relative stereo) [I-838]
2.01[a] |  |  | Nc1nsc(C(=O)NCc2ccccc2C(F)F)c1Cl [I-124]

LogP | LogP [a] | LogP [b] | Compound
3.89[a] |  |  | COc1ccc(CNc2nsc(C(=O)NCc3ccc(F)c(C)c3)c2Cl)cc1 [I-350]
2.51[a] |  |  | Nc1nsc(C(=O)Nc2ccc(Cl)cc2)c1Cl [I-878]
3.02[a] |  |  | Cc1cccc(C)c1CN(C(=O)c1snc(N)c1Cl)C1CC1 [I-154]
3.23[a] |  |  | COc1ccc(CNc2nsc(C(=O)NCc3ccc(C#N)cc3)c2Cl)cc1 [I-1555]
4.82[a] |  |  | COc1ccc(CNc2nsc(C(=O)N(Cc3c(C)cccc3C)C3CC3)c2Cl)cc1 [I-891]
1.50[a] |  |  | Nc1nsc(C(=O)NCC2(F)CCC2)c1Cl [I-827]
2.58[a] |  |  | COC1(CNC(=O)c2snc(N)c2Cl)CCC(C)CC1 (stereo not drawn) [I-837]
 | 2.17 | 2.16 | CC(C)OC(=O)c1snc(N)c1Cl [E-VII-005]
2.51[a] |  |  | CC(=O)Nc1nsc(C(=O)N[C@@H](C)C2CCCCC2)c1Cl [I-097]
0.73[a] |  |  | Nc1nsc(C(=O)NCC2CCOC2)c1Cl (stereo not drawn) [I-011]
3.54[a] |  |  | CC1CCCC(C)(C)C1CNC(=O)c1snc(N)c1Cl (stereo not drawn) [I-083]
3.09[a] |  |  | CCn1ncc(CNC(=O)c2snc(NCc3ccc(OC)cc3)c2Cl)c1C(F)F [I-1312]
4.08[a] |  |  | COc1ccc(CNc2nsc(C(=O)NCCc3ccc(Cl)cc3)c2Cl)cc1 [I-962]
5.11[a] |  |  | COc1ccc(CNc2nsc(C(=O)N(Cc3cc(C)c(C)cc3C)C3CC3)c2Cl)cc1 [I-889]
2.58[a] |  |  | O=C(NCc1ccc(F)cc1F)c1cc(NC(=O)C(F)(F)F)ns1 [I-398]
2.12[a] |  |  | COc1c(F)ccc(CNC(=O)c2snc(N)c2Cl)c1F [I-464]
4.15[a] |  |  | COc1ccc(CNc2nsc(C(=O)Nc3cc(F)cc(F)c3)c2Cl)cc1 [I-862]
 | 2.68^[a] |  | CC(Cc1ccc(Cl)cc1)NC(=O)c1snc(N)c1Cl (stereo not drawn) [II-027]
4.69[a] |  |  | COc1ccc(CNc2nsc(C(=O)NCc3ccc(C(C)(C)C)cc3)c2Cl)cc1 [I-1199]
4.06[a] |  |  | O=C(c1cc(NCc2ccccc2)ns1)N(Cc1cc(Cl)ccc1F)C1CC1 [I-1000]
2.11[a] |  |  | Nc1cc(C(=O)NCc2ccc(Cl)cc2Cl)sn1 [I-306]
4.08[a] |  |  | CCOc1ccccc1CNC(=O)c1snc(NCc2ccc(OC)cc2)c1Cl [I-1247]

Compound | LogP | LogP [a] | LogP [b]
CNS(=O)(=O)Nc1nsc(C(=O)NCC2CCCCC2)c1Cl [II-051] |  | 2.38^[a] | 
C[C@H](NC(=O)c1snc(NS(=O)(=O)c2ccccc2)c1Cl)C1CCCCC1 [II-009] |  | 3.75^[a] | 

same assay, conditions: HPLC LC-UV, acidic range, 0.1% formic acid in water and acetonitrile as eluent

Compound | chromatographic logP
O=C(NCC1CCCCC1)c1snc(Cl)c1Cl [E-II-001, 3,4-dichloro-N-(cyclohexylmethyl)isothiazole-5-carboxamide] | 4.11

— patent publication US20190110476A1, “NOVEL ISOTHIAZOLAMIDES, PROCESSES FOR THEIR PREPARATION AND THEIR USE AS FUNGICIDES” (priority 2014, published 2019)
